Consider 8 compounds from ChEMBL document CHEMBL1201862, “PubChem BioAssay data set” (2004).

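Each compound was tested at five concentrations against cells in 96-well plates for 48 hours. At the GI50, growth is halved.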 Active and inactive are the calls of the source. Cut-off read from the data, not from the text of the source: active = GI50 up to about 1.1 µM and inactive = higher. Bounds are passed on as bounds.

Test systems include Malme-3M; HCT-116; LOX IMVI; SK-OV-3; TK-10; T47D; UO-31; UACC-257; K562; PC-3; ACHN; OVCAR-5; MOLT-4; OVCAR-8; NCI-H522; HOP-62; RXF 393; KM12; HOP-92; CAKI-1.
What all share (assay): NCI anticancer screen, dose series, 48 h

On to `CC(C)C/N=C(\N)N=C(N)N`, for which the GI50 in the test on Malme-3M, with HCT-116, with LOX IMVI, in the test with SK-OV-3, in the test on TK-10 and with T47D was > 100 µM (inactive) in each case. Besides, the GI50 in the test on UO-31, in the test on UACC-257, in the test with K562, with PC-3, with ACHN and in the test on OVCAR-5 was > 100 µM (inactive) throughout. Also, the GI50 with MOLT-4, in the test with OVCAR-8, in the test on NCI-H522, in the test on HOP-62, in the test on RXF 393 and with KM12 was > 100 µM (inactive) each time. The GI50 in the test on HOP-92 was > 100 µM (inactive).

In the case of `CC1=NN(c2nc(N)nc(/C(C#N)=C/c3ccncc3)n2)C(C)(C)C1`, the GI50 in the test with HCT-116, in the test with LOX IMVI, with SK-OV-3, in the test with TK-10, with T47D and in the test on UO-31 was > 100 µM (inactive) in each case. Besides, the GI50 in the test with UACC-257 was > 100 µM (inactive); with K562 it was 13.5 µM (inactive); with PC-3, > 100 µM (inactive); with ACHN, > 100 µM (inactive); in the test with CAKI-1 it was > 100 µM (inactive); with MOLT-4, > 100 µM (inactive). Further, the GI50 in the test on OVCAR-8 is > 100 µM (inactive); in the test on HOP-62 it was > 100 µM (inactive); in the test with RXF 393, 32 µM (inactive); in the test on KM12 it was > 100 µM (inactive); with HOP-92 it was > 100 µM (inactive).

For the compound `CC1=C(SCc2ccccc2)C(=O)c2ccccc2C1=O`, the GI50 was 15.5 µM (inactive) with Malme-3M; 4.23 µM (inactive) in the test with HCT-116; 17.6 µM (inactive) with LOX IMVI; 20.2 µM (inactive) in the test with SK-OV-3; 21 µM (inactive) in the test with TK-10; 3.18 µM (inactive) with T47D. Further, the GI50 was 16.1 µM (inactive) in the test with UACC-257; 3.05 µM (inactive) in the test with K562; 17.6 µM (inactive) in the test with PC-3; 13.6 µM (inactive) with ACHN; 25.5 µM (inactive) in the test on OVCAR-5; 13.4 µM (inactive) with CAKI-1. The GI50 in the test on MOLT-4 is 1.68 µM (inactive); in the test on OVCAR-8 it was 13.4 µM (inactive); with HOP-62 it was 17.3 µM (inactive); in the test on RXF 393, 16.6 µM (inactive); in the test with KM12, 18.5 µM (inactive); in the test on HOP-92 it was 4.72 µM (inactive).

In the case of `Oc1[nH]c(Nc2ccc(F)c(Cl)c2)nc2ncnc1-2`, the GI50 with Malme-3M, with HCT-116, in the test with LOX IMVI, in the test with SK-OV-3, with TK-10 and in the test with T47D was > 100 µM (inactive) throughout. Also, the GI50 in the test with UO-31, in the test on UACC-257, in the test with PC-3, in the test with ACHN, with OVCAR-5 and with CAKI-1 was > 100 µM (inactive) each time. Besides, the GI50 in the test with MOLT-4 is 7.29 µM (inactive); with OVCAR-8, > 100 µM (inactive); in the test with NCI-H522, > 100 µM (inactive); with HOP-62, > 100 µM (inactive); with KM12 it was > 100 µM (inactive); with HOP-92, > 100 µM (inactive).

With `Fc1cccc(F)c1C1SCC2=Nc3ccccc3CN21` (centres undefined), the GI50 in the test on HCT-116 is 26.5 µM (inactive); in the test with LOX IMVI it was > 100 µM (inactive); with SK-OV-3 it was 36.8 µM (inactive); with TK-10 it was > 100 µM (inactive); in the test on T47D it was 49.7 µM (inactive); in the test on UO-31 it was 96.6 µM (inactive). Besides, the GI50 was 60.3 µM (inactive) in the test on UACC-257; 92.3 µM (inactive) in the test on K562; 30.8 µM (inactive) in the test with PC-3; 33.7 µM (inactive) with ACHN; 56 µM (inactive) in the test on OVCAR-5; > 100 µM (inactive) in the test with CAKI-1. In addition, the GI50 is 74 µM (inactive) in the test with MOLT-4; 20.8 µM (inactive) in the test on HOP-62; 23.9 µM (inactive) with RXF 393; 54 µM (inactive) with KM12; 71.8 µM (inactive) with HOP-92.

As for `NC(=O)SCC(=O)Nc1ccc2cccc3c2c1CC3`, the GI50 with Malme-3M is > 100 µM (inactive); in the test on HCT-116, 15.5 µM (inactive); with LOX IMVI, 6.75 µM (inactive); with TK-10 it was 27.9 µM (inactive); in the test on T47D, 21.9 µM (inactive); in the test on UO-31 it was 41.2 µM (inactive). Besides, the GI50 in the test with UACC-257 was 21.1 µM (inactive); with K562, 12.8 µM (inactive); with PC-3, 4.4 µM (inactive); in the test with ACHN, 22.8 µM (inactive); in the test with OVCAR-5 it was 17.7 µM (inactive); in the test with CAKI-1, 42.1 µM (inactive). In addition, the GI50 in the test on MOLT-4 is 19.8 µM (inactive); with OVCAR-8, 63.4 µM (inactive); in the test on NCI-H522, > 100 µM (inactive); in the test on HOP-62 it was 52.1 µM (inactive); with RXF 393, 26 µM (inactive); in the test on KM12, 36.7 µM (inactive). Besides, in the test with HOP-92, the GI50 was 0.596 µM (active).

Turning to `Cc1c(O)oc2ccccc2c1=O`, the GI50 in the test on Malme-3M, with HCT-116, with LOX IMVI, in the test with T47D, in the test on UO-31 and in the test on UACC-257 was > 100 µM (inactive) in each case. For the same compound, the GI50 in the test with K562, in the test with PC-3, in the test on ACHN, in the test with OVCAR-5, in the test on CAKI-1 and in the test on MOLT-4 was > 100 µM (inactive) in each case. For the same compound, the GI50 with OVCAR-8, with NCI-H522, in the test on HOP-62, with RXF 393, in the test on KM12 and in the test on HOP-92 was > 100 µM (inactive) in each case.

Consider `CC1C2(C)OC(=N)C(C#N)(C(c3ccccc3)O2)C1(C#N)C#N` (centres undefined), for which the GI50 is 28.3 µM (inactive) with Malme-3M; 21.2 µM (inactive) with HCT-116; 17.2 µM (inactive) with LOX IMVI; > 100 µM (inactive) in the test with SK-OV-3; 36 µM (inactive) in the test on TK-10; 20 µM (inactive) in the test with T47D. Further, the GI50 with UO-31 is 39.8 µM (inactive); in the test with UACC-257 it was 25.2 µM (inactive); in the test with K562 it was 25.1 µM (inactive); in the test with PC-3 it was 22.8 µM (inactive); in the test on ACHN, 38.1 µM (inactive); in the test with OVCAR-5, 25.5 µM (inactive). The GI50 is 13.7 µM (inactive) with CAKI-1; 25.4 µM (inactive) in the test with MOLT-4; 30.4 µM (inactive) with OVCAR-8; 30.3 µM (inactive) in the test with RXF 393; 51.5 µM (inactive) in the test with KM12; 12.6 µM (inactive) in the test with HOP-92.
